Reference: patent US7683040B2, “Intranasal formulation of rotigotine” (SRZ Properties, Inc., priority 2003, dated 2010)

Legend:
[1] = comparative storage test in aqueous rotigotine solution with/without α-cyclodextrin; assay type: physicochemical; conditions: solution of 1.6 mg/ml with α-cyclodextrin, storage at 60° C. for 8 weeks
From the text: The stabilizing effect of α-cyclodextrin becomes also apparent from a comparative test in an aqueous rotigotine solution.

[2] = rat, cited from earlier work
[3] = (maximum) solubility in aqueous solution with α- or β-cyclodextrin, isocratic HPLC; assay type: physicochemical; conditions: aqueous solution and aqueous solutions containing α- or β-cyclodextrin
Method: The concentration was determined by isocratic HPLC analysis. HPLC column LiChroCART 75×4 mm, Superspher 60 RP-select B 5 μm (Merck), column temperature: 30° C., mobile phase: water/acetonitrile/methane sulfonic acid (65/35/0.05 v/v/v), flow rate: 2 mL/min, injection volume: 50 μl, detection at 220 nm, retention time approx. 1.5 min. The concentration was determined by use of an external reference solution with known concentration.

[4] = in-vitro permeation assay through nasal mucosa; assay type: in vitro ADME, cattle
From the text: The intranasal formulation according to the present invention may preferably further contain a viscosity-enhancing substance. Glycerol and carboxymethylcellulose (CMC) are particularly useful as viscosity enhancers, but the present invention is not limited thereto. Glycerol is particularly preferred as it also has a soothing effect on the nasal mucosa. The viscosity of the intranasal formulations of the present invention should preferably be between 0.8 and 1.5 mm^2/s, most preferably around 1.2 mm^2/s. The viscosity can be determined by an Ubbelohde capillary viscosimeter with suspending ball-level for the determination of kinematic viscosity according to DIN 51562, part 1.
The pH-value of the formulation of the present invention should preferably in the range of 4.5 to 6.5, more preferably around 5.8±0.3. […] The pH value of the intranasal formulation can be adjusted during or after its preparation with a pharmaceutically acceptable acid or base. Most preferably, citric acid is used for this purpose.

[5] = cited from earlier work
cilia = conditions: cited from earlier work

For `CCCN(CCc1cccs1)[C@H]1CCc2c(O)cccc2C1` [Rotigotine base, 5,6,7,8-tetrahydro-6-[propyl-[2-(2-thienyl)ethyl]amino]-1-naphthalenol], the “decrease in the rotigotine concentration” value [1] is listed as -0.07 mg/mL, the bioavailability ([2]; buccal, nasal or rectal administration compared with oral dosing, solution in 1:1 PEG 400 and water) is listed as “improved bioavailability” and the “bioavailability for the nasal dosing” value ([2]; compared with results described for other lipophilic drugs) is listed as “somewhat disappointing”. For the same compound, the “solubility (in words)” value [3] was “practically insoluble”, the “rotigotine uptake through nasal mucosa” value ([4]; formulation pH 4.5) was “significantly lower rotigotine uptake” and the “drug uptake through nasal mucosa” value ([4]; formulation pH 5.8) was “optimal drug uptake”. The “rotigotine uptake through nasal mucosa” value ([4]; formulation pH 6.5) was “significantly lower rotigotine uptake” and the “uptake of rotigotine through the nasal mucosa” value ([4]; glycerol in the formulation) was “increase the uptake”.

For `CN1CCc2cccc3c2[C@H]1Cc1ccc(O)c(O)c1-3` [apomorphine], the oxidation in solution [5] is given as “subject to rapid oxidation”.

For benzalkonium chloride, the ciliary toxicity (cilia) is given as “significant ciliary toxicity”.
